Source: ChEMBL document CHEMBL1201862, “PubChem BioAssay data set” (2004)
Active and inactive are the calls of the source.

Target: T1, Heat shock factor protein 1 (Mus musculus, UniProt P38532)
T1 sequence (P38532 whole entry): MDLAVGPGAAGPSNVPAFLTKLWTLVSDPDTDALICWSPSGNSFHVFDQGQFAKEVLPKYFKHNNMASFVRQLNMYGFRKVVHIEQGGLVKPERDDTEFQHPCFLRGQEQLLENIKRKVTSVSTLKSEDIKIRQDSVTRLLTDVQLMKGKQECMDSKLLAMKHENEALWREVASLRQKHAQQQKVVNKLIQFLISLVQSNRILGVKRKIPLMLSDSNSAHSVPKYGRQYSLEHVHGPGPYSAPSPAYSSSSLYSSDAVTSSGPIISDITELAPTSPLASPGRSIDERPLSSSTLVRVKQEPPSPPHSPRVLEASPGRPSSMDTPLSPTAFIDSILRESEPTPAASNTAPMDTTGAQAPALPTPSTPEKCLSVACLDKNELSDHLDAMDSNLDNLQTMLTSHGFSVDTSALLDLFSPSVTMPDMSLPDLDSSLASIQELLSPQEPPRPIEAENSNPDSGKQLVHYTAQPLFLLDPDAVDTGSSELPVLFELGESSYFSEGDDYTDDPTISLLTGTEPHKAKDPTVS
Assay: enhancement of HSF1-driven luciferase signal – cell-based, NIH3T3, luminescence, dose retest, confirmation (AID 435004);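 note: stress induced by proteasome inhibitor MG132 added 30 min after compound; luciferase reporter driven by HSF1 response element in NIH3T3 cells; actives raise luminescence as potentiators of the MG132 stress response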
Format: functional
Settings: not given

Row | Structure (SMILES) | EC50
1 | CN(C)CCc1nc2ccccc2c(=O)n1-c1ccccc1 | > 260 µM (inactive)
2 | CCN(CCCNC(=O)CCCN1C(=O)COc2ccc(C)cc21)c1cccc(C)c1 | > 260 µM (inactive)

Now from value to compound:

Row | EC50 | Structure (SMILES)
3 | > 260 µM (inactive) | COc1cc(OC)c(OC)cc1CN(C)CCc1ccccn1
4 | > 260 µM (inconclusive) | Cc1ccc(NC(=O)c2cnn(-c3ccccc3)c2C)cc1
5 | 14.6 µM (active) | O=C(/C=C/c1cccc([N+](=O)[O-])c1)NC(=S)Nc1ccc(CN2CCOCC2)cc1
6 | > 260 µM (inactive) | COC(=O)Cn1c(=O)c2c(nc3n2CC(C)CN3CCc2ccccc2)n(C)c1=O (stereo unspecified)

Target: T2, Polyadenylate-binding protein 1 (Homo sapiens, UniProt P11940)
T2 sequence (P11940 whole entry): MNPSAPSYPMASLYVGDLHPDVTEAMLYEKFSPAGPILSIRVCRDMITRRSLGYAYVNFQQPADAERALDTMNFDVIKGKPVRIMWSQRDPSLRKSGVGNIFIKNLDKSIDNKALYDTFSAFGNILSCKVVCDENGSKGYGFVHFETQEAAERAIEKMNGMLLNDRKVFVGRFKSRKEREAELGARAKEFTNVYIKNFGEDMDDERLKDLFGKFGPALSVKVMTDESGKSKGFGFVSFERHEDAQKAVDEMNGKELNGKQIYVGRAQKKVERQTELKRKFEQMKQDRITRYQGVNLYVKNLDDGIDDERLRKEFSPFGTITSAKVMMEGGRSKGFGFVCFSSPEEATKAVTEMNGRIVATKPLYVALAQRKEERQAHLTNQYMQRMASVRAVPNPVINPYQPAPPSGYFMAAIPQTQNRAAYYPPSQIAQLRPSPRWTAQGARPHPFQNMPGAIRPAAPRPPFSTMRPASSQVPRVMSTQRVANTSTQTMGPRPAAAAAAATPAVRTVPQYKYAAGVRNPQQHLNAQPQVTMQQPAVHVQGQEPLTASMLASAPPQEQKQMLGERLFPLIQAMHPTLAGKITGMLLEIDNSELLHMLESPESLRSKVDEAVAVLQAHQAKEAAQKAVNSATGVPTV
Assay: MLLE binding blockers, Cy5 peptide tracer – biochemical, fluorescence polarization, Cy5-PAM2 peptide, secondary, miRNA deadenylation inhibitor project, dose response (AID 602260)
Format: functional
Settings: read-out: IC50_Mean

Row | Structure (SMILES) | IC50
7 | COc1cccc(-c2nc(=S)c3c(n2CCCO)CCCC3)c1 | > 66 µM (inactive)
8 | COc1ccc(CN2CC(=O)N3[C@H]4c5ccccc5OC[C@@H]4[C@H](c4ccccc4)[C@]3(C)C2=O)cc1 | > 66 µM (inactive)

More lines, now with the values ahead:

Row | IC50 | Structure (SMILES)
9 | > 66 µM (inactive) | O=C(/C=C/c1cccc([N+](=O)[O-])c1)NC(=S)Nc1ccc(CN2CCOCC2)cc1
10 | 61.6 µM (inactive) | CC1=CC(=O)C=CC1=Nc1ccc(N(C)C)cc1

Target: T2, Polyadenylate-binding protein 1
Assay: MLLE domain peptide-binding blockers, IC50 – biochemical, fluorescence polarization, FITC-PAM2 peptide, dose response (AID 602259)
Format: functional
Settings: read-out: IC50_Mean

Row | Structure (SMILES) | IC50
11 | COc1cccc(-c2nc(=S)c3c(n2CCCO)CCCC3)c1 | > 66 µM (inactive)
12 | COc1ccc(CN2CC(=O)N3[C@H]4c5ccccc5OC[C@@H]4[C@H](c4ccccc4)[C@]3(C)C2=O)cc1 | > 66 µM (inactive)

Results, then the compound that gave them:

Row | IC50 | Structure (SMILES)
13 | > 66 µM (inactive) | O=C(/C=C/c1cccc([N+](=O)[O-])c1)NC(=S)Nc1ccc(CN2CCOCC2)cc1
14 | > 66 µM (inactive) | CC1=CC(=O)C=CC1=Nc1ccc(N(C)C)cc1

Target: T3, Fatty acid synthase (Homo sapiens, UniProt P49327)
T3 sequence (P49327 whole entry): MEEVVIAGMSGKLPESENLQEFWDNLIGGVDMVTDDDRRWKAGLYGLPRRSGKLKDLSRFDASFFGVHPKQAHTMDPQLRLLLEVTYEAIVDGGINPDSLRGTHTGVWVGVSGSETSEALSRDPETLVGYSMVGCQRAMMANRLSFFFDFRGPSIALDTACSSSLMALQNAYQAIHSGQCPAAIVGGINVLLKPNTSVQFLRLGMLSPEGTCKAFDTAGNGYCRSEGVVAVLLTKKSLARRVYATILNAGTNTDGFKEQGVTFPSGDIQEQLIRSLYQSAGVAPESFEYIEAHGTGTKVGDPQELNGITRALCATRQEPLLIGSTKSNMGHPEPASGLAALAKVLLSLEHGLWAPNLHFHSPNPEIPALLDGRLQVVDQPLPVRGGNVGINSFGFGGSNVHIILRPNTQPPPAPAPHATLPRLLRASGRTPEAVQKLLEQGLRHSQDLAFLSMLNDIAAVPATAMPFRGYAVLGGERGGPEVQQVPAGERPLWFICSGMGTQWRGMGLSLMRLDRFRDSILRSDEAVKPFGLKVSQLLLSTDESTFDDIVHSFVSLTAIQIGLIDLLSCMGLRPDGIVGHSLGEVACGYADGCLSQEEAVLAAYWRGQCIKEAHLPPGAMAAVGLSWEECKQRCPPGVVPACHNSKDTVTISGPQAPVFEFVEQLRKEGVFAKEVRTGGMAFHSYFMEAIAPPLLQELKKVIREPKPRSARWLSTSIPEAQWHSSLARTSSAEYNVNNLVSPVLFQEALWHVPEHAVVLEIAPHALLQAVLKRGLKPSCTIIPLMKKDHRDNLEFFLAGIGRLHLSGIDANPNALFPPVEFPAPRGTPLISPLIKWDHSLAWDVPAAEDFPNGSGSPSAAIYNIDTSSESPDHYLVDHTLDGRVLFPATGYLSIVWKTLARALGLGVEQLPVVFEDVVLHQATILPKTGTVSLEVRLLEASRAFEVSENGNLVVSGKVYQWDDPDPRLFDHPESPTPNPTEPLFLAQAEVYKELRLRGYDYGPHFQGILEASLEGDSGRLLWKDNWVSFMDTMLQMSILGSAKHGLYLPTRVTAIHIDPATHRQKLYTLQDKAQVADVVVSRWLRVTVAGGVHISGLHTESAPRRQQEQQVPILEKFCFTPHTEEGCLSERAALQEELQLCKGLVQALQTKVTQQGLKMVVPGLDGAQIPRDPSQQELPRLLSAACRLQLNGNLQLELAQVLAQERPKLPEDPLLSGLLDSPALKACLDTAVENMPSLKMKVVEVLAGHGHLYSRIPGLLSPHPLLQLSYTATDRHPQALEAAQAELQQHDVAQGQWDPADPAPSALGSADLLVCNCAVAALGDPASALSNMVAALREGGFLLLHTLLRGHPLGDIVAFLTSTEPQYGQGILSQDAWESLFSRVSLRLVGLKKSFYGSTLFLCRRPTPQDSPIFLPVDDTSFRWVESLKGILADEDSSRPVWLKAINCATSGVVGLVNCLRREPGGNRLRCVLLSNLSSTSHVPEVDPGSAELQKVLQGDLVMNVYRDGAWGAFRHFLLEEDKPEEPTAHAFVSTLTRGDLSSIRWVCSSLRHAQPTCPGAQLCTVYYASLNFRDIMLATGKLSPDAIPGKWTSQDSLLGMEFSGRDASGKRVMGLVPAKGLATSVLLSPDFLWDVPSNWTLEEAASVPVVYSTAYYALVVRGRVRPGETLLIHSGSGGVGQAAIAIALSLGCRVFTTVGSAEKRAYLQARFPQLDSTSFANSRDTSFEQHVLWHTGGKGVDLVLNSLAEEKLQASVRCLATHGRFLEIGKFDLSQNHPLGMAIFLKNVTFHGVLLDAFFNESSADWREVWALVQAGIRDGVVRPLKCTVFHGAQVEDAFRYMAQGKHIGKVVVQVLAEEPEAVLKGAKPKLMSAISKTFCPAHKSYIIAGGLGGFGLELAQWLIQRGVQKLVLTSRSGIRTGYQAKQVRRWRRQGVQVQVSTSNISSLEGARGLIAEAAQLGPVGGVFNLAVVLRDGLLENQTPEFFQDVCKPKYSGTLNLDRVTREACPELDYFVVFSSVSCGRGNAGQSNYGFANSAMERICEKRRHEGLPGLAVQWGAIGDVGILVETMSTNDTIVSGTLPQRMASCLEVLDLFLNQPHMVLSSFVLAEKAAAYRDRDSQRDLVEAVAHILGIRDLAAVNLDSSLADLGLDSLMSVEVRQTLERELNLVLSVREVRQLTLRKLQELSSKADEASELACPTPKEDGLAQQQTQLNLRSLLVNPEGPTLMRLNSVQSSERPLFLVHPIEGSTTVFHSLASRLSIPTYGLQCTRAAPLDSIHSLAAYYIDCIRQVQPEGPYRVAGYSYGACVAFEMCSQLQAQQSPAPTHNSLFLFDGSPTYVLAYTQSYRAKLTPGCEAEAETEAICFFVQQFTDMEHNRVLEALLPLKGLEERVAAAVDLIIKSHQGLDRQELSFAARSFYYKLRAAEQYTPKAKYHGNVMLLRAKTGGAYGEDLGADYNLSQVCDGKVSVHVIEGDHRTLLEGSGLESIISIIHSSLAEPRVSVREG
Assay: inhibition of human FAS-TE enzyme activity – biochemical, endpoint fluorescence intensity, uHTS hits, dose response (AID 624327);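 note: fluorescence from hydrolysis of an O-methyl fluorescein acyl ester substrate by the enzyme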
Format: functional
Settings: not given

Row | Structure (SMILES) | IC50
15 | O=[N+]([O-])c1cccc(CN2CC=C(c3ccc(F)cc3)CC2)c1 | 11.4 µM (active)
16 | O=C(COC(=O)c1cc([N+](=O)[O-])ccc1N1CCOCC1)NCCc1ccccc1 | 1.98 µM (active)

The next lines start with the values.

Row | IC50 | Structure (SMILES)
17 | 5.95 µM (active) | COc1ccc([N+](=O)[O-])cc1C(=O)NCCOc1ccc(Cl)cc1
18 | 7.7 µM (active) | O=C(OCC(=O)N1CCN(c2ccccc2)CC1)c1cccc([N+](=O)[O-])c1
19 | 4.35 µM (active) | N#Cc1cc(Oc2ccc(Cl)cc2)c(N2CCOCC2)cc1C#N

Target: T3, Fatty acid synthase
Assay: inhibition of human FAS-TE enzyme activity – biochemical, kinetic fluorescence intensity, dose response (AID 624326);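 note: rate of fluorescence rise from hydrolysis of a fluorogenic O-methyl fluorescein ester substrate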
Format: functional
Settings: not given

Row | Structure (SMILES) | IC50
20 | O=[N+]([O-])c1cccc(CN2CC=C(c3ccc(F)cc3)CC2)c1 | 9.86 µM (active)
21 | O=C(COC(=O)c1cc([N+](=O)[O-])ccc1N1CCOCC1)NCCc1ccccc1 | 2.6 µM (active)

Next, values leading:

Row | IC50 | Structure (SMILES)
22 | 7.34 µM (active) | COc1ccc([N+](=O)[O-])cc1C(=O)NCCOc1ccc(Cl)cc1
23 | 11.9 µM (active) | O=C(OCC(=O)N1CCN(c2ccccc2)CC1)c1cccc([N+](=O)[O-])c1
24 | 4.83 µM (active) | N#Cc1cc(Oc2ccc(Cl)cc2)c(N2CCOCC2)cc1C#N

Test system: not listed separately
Assay: blockers of HIV-1 envelope-mediated cell-cell fusion – cherry-pick, dose response (AID 652057)
Format: functional, cell-based
Settings: not given

Row | Structure (SMILES) | AC50
25 | COc1ccccc1-c1ccc2c(c1)O[C@H](CN(C)S(=O)(=O)c1ccc(C)cc1)[C@H](C)CN([C@@H](C)CO)S2(=O)=O | 2.84 µM (active)

Test system: not listed separately
Assay: HIV-1 AD8 envelope cell-cell fusion blockers – cherry-pick, dose response (AID 652062);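 note: luciferase signal from cell-cell fusion driven by HIV-1 clade B AD8 Env; potency is for inhibitors of fusion seen as a drop in luminescence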
Format: functional, cell-based
Settings: not given

Row | Structure (SMILES) | AC50
26 | COc1ccccc1-c1ccc2c(c1)O[C@H](CN(C)S(=O)(=O)c1ccc(C)cc1)[C@H](C)CN([C@@H](C)CO)S2(=O)=O | 2.97 µM (active)
